Results from patent US12527777B2, “Sustained release pyridostigmine compositions” (priority 2018, dated 2026).

What was measured:
[1] = in vivo; cited from earlier work
[2] = Effect of relative humidity on adsorption of water vapour (deliquescence); type: physicochemical

Row | Compound | biological half-life [1] | relative humidity (RH) at which deliquescence is exhibited [2]
1 | CN(C)C(=O)Oc1ccc[n+](C)c1 [Pyridostigmine, (1-methylpyridin-1-ium-3-yl) N,N-dimethylcarbamate] | 2-3 hours | –
2 | CN(C)C(=O)Oc1ccc[n+](C)c1 [pyridostigmine bromide] | – | 33%
